{"source": "patent US9540389B2", "about": "“Antimicrobial potentiators” (priority 2013, dated 2017)", "key": {"[1]": {"system": "Escherichia coli AB1157 (WT)", "test": "Checkerboard MIC assay (antibacterial agent + MBX2319)", "format": "cell-based", "conditions": "WT", "text": "(§1) • Strains and Reagents. The following strains were obtained from the Keio collection (Baba, et al.: Construction of Escherichia coli K-12 in-frame, single-gene knockout mutants: the Keio collection. In Mol Syst Biol, vol. 2, pp. 2006 0008, (2006)): JW0451 (ΔacrB::kan), JW5503 (ΔtolC::kan), JW3234 (ΔacrF::kan), JW2661 (ΔemrB::kan), JW0863 (ΔmacB::kan). The deletion mutations in each of these strains were transferred to AB1157 using P1 phage transduction (see Table 1). The construction of the E. coli cell-based reporter strain (SOS-XXX) that was used for high throughput screening is described in detail in the supplementary information. […] Irgasan was a generous gift from Ciba Speciality Chemicals, Inc. (High Point, N.C.). Hoechst 33342 (H33342) was purchased from Molecular Probes (Eugene, Oreg.). […] Luria Broth (Miller) and agar were purchased as prepared dehydrated media from Becton Dickenson (Franklin Lakes, N.J.). The compound libraries used in high-throughput screens were purchased from Chembridge (San Diego, Calif.), ChemDiv (San Diego, Calif.), and TimTec (Newark, Del.). MBX2319 was synthesized by Microbiotix, Inc. • Antibacterial Activity Assays. The minimal inhibitory concentration (MIC) of antibacterial agents and biocides were determined using the microbroth dilution method essentially as described in the CLSI protocol M7-A7 (CLSI: Method for dilution antimicrobial susceptibility testing for bacteria that grow aerobically; Approved standard-document M7-A7. In Clinical and Laboratory Standards Institute document M7-A7, Clinical and Laboratory Standards Institute, Wayne, Pa., (2006)), with the following exceptions. LB media was used instead of MHB. […] The final concentration of DMSO in each assay was 2%. […] MIC assays were performed in triplicate and the geometric mean was calculated. Checkerboard MIC assays using an EPI and an antibacterial agent were performed essentially as described (Pillai, et al.: Antimicrobial Combinations. In Antibiotics in Laboratory Medicine, ed. by V. Lorian, pp. 365-440, Lippincott Williams & Wilkins, Philadelphia, Pa., (2005)), with the same modifications used for the MIC assays described above. • Time-Kill Assays. Killing curve assays were performed essentially as described (Pillai, et al.: Antimicrobial Combinations. In Antibiotics in Laboratory Medicine, ed. by V. Lorian, pp. 365-440, Lippincott Williams & Wilkins, Philadelphia, Pa., (2005)). Exponential bacterial cultures grown in LB were diluted to a cell density of ˜1×10^7 in LB followed by addition of CIP and/or an EPI. Viability was monitored over 2-4 hours by making serial dilutions in saline and spotting 5 μl of each dilution onto the surface of an LB agar plate in triplicate. Colonies were counted after the plates were incubated at 37° C. for 16-18 hr, colony forming units (CFU) per ml were calculated, and the average and standard deviation for the three replicates was determined. For treatments that decreased CFU/ml below the limit of detection for the spot plating method, the 100 μl samples were diluted into 5 ml LB top agar, were poured onto LB agar plates, and incubated for 18 hr at 37° C. To calculate the fraction of the control for each sample, the average CFU/ml values for treated samples were divided by those from the same sample at 0 h (time=0). Each experiment was repeated at least three times, and a representative experiment is shown. • H33342 Accumulation Assay. The rate of accumulation of the fluorescent dye Hoechst 33342 (H33342), which is a substrate of a wide variety of bacterial efflux pumps (van den Berg van Saparoea, et al., Biochemistry, vol. 44, pp. 16931-16938, (2005)), can be used to estimate the activity of the major efflux pumps in E. coli and many other bacterial species. The H33342 accumulation assay was used to evaluate the effect of EPIs on the activity of the AcrAB-TolC efflux pump in several bacterial species essentially as described (Coldham, et al., J Antimicrob Chemother, vol. 65, pp. 1655-1663, (2010)). […]"}, "[2]": {"system": "Escherichia coli AB1157 ΔacrB", "test": "Checkerboard MIC assay (antibacterial agent + MBX2319)", "format": "cell-based", "text": "as §1"}, "[3]": {"system": "Escherichia coli AB1157 ΔacrF", "test": "Checkerboard MIC assay (antibacterial agent + MBX2319)", "format": "cell-based", "text": "as §1"}, "[4]": {"system": "Escherichia coli AB1157 ΔtolC", "test": "Checkerboard MIC assay (antibacterial agent + MBX2319)", "format": "cell-based", "text": "as §1"}, "[5]": {"system": "Enterobacter aerogenes ATCC 13048", "test": "MIC assay (microbroth dilution) ± 25 μM EPI", "format": "cell-based", "text": "as §1"}, "[6]": {"system": "Escherichia coli 331", "test": "MIC assay (microbroth dilution) ± 25 μM EPI", "format": "cell-based", "conditions": "E. coli 331", "text": "as §1"}, "[7]": {"system": "Escherichia coli AB1157", "test": "MIC assay (microbroth dilution) ± 25 μM EPI", "format": "cell-based", "conditions": "E. coli AB1157 (WT); + 25 μM MBX2319; geometric mean", "text": "as §1"}, "[8]": {"system": "Escherichia coli ATCC 25922", "test": "MIC assay (microbroth dilution) ± 25 μM EPI", "format": "cell-based", "conditions": "E. coli ATCC 25922", "text": "as §1"}, "[9]": {"system": "Klebsiella pneumoniae ATCC 700603", "test": "MIC assay (microbroth dilution) ± 25 μM EPI", "format": "cell-based", "text": "as §1"}, "[10]": {"system": "Salmonella enterica ATCC 14028", "test": "MIC assay (microbroth dilution) ± 25 μM EPI", "format": "cell-based", "text": "as §1"}, "[11]": {"system": "Shigella flexneri ATCC 12022", "test": "MIC assay (microbroth dilution) ± 25 μM EPI", "format": "cell-based", "text": "as §1"}, "[12]": {"system": "P. aeruginosa ATCC 27853", "test": "MIC assay (microbroth dilution) ± 25 μM EPI", "format": "cell-based, Pseudomonas aeruginosa", "text": "as §1"}, "[13]": {"system": "Escherichia coli AB1157", "test": "microbe, parasite or virus in culture"}, "[14]": {"conditions": "Escherichia coli, read-out: MIC (μg/ml) with MBX2319 at concn (μM) of: 0"}}, "data": [{"smiles": "C[C@H]1COc2c(N3CCN(C)CC3)c(F)cc3c(=O)c(C(=O)O)cn1c23", "note": "[Levofloxacin]", "values": [{"measurement": "MIC (μg/ml) with MBX2319 at concn (μM) of: 3.13", "setting": "[1]; MBX2319 3.13 μM", "result": 0.016, "unit": "µg/mL"}, {"measurement": "MIC (μg/ml) with MBX2319 at concn (μM) of: 6.25", "setting": "[1]; MBX2319 6.25 μM", "result": 0.016, "unit": "µg/mL"}, {"measurement": "MIC (μg/ml) with MBX2319 at concn (μM) of: 25", "setting": "[1]; MBX2319 25 μM", "result": 0.016, "unit": "µg/mL"}, {"measurement": "MIC (μg/ml) with MBX2319 at concn (μM) of: 50", "setting": "[1]; MBX2319 50 μM", "result": 0.016, "unit": "µg/mL"}, {"measurement": "MIC (μg/ml) with MBX2319 at concn (μM) of: 12.5", "setting": "[1]; MBX2319 […]", "result": 0.016, "unit": "µg/mL"}, {"measurement": "MIC", "setting": "[2]; [14]", "result": 0.016, "unit": "µg/mL"}, {"measurement": "MIC (μg/ml) with MBX2319 at concn (μM) of: 1.56", "setting": "[2]; ΔacrB, MBX2319 1.56 μM", "result": 0.016, "unit": "µg/mL"}, {"measurement": "MIC (μg/ml) with MBX2319 at concn (μM) of: 3.13", "setting": "[2]; ΔacrB, MBX2319 3.13 μM", "result": 0.016, "unit": "µg/mL"}, {"measurement": "MIC (μg/ml) with MBX2319 at concn (μM) of: 6.25", "setting": "[2]; ΔacrB, MBX2319 6.25 μM", "result": 0.016, "unit": "µg/mL"}, {"measurement": "MIC (μg/ml) with MBX2319 at concn (μM) of: 25", "setting": "[2]; ΔacrB, MBX2319 25 μM", "result": 0.016, "unit": "µg/mL"}, {"measurement": "MIC (μg/ml) with MBX2319 at concn (μM) of: 50", "setting": "[2]; ΔacrB, MBX2319 50 μM", "result": 0.016, "unit": "µg/mL"}, {"measurement": "MIC (μg/ml) with MBX2319 at concn (μM) of: 12.5", "setting": "[2]; ΔacrB, MBX2319 […]", "result": 0.016, "unit": "µg/mL"}, {"measurement": "MIC", "setting": "[3]; [14]", "result": 0.063, "unit": "µg/mL"}, {"measurement": "MIC (μg/ml) with MBX2319 at concn (μM) of: 6.25", "setting": "[3]; ΔacrF, MBX2319 6.25 μM", "result": 0.016, "unit": "µg/mL"}, {"measurement": "MIC (μg/ml) with MBX2319 at concn (μM) of: 25", "setting": "[3]; ΔacrF, MBX2319 25 μM", "result": 0.016, "unit": "µg/mL"}, {"measurement": "MIC (μg/ml) with MBX2319 at concn (μM) of: 50", "setting": "[3]; ΔacrF, MBX2319 50 μM", "result": 0.016, "unit": "µg/mL"}, {"measurement": "MIC (μg/ml) with MBX2319 at concn (μM) of: 12.5", "setting": "[3]; ΔacrF, MBX2319 […]", "result": 0.016, "unit": "µg/mL"}, {"measurement": "MIC", "setting": "[4]; [14]", "result": 0.016, "unit": "µg/mL"}, {"measurement": "MIC (μg/ml) with MBX2319 at concn (μM) of: 1.56", "setting": "[4]; ΔtolC, MBX2319 1.56 μM", "result": 0.016, "unit": "µg/mL"}, {"measurement": "MIC (μg/ml) with MBX2319 at concn (μM) of: 3.13", "setting": "[4]; ΔtolC, MBX2319 3.13 μM", "result": 0.016, "unit": "µg/mL"}, {"measurement": "MIC (μg/ml) ± EPI: MBX2319", "setting": "[5]; + 25 μM MBX2319", "result": 0.044, "unit": "µg/mL"}, {"measurement": "MIC (μg/ml) ± EPI: PAβN", "setting": "[5]; + 25 μM PAβN", "result": 0.063, "unit": "µg/mL"}, {"measurement": "MIC", "setting": "[5]; Klebsiella aerogenes, ATCC13048, no EPI, read-out: MIC (μg/ml) ± EPI: None", "result": 0.177, "unit": "µg/mL"}, {"measurement": "MIC (μg/ml) ± EPI: MBX2319", "setting": "[6]; + 25 μM MBX2319", "result": 11.3, "unit": "µg/mL"}, {"measurement": "MIC (μg/ml) ± EPI: PAβN", "setting": "[6]; + 25 μM PAβN", "result": 32, "unit": "µg/mL"}, {"measurement": "MIC", "setting": "[6]; Escherichia coli, no EPI, read-out: MIC (μg/ml) ± EPI: None", "result": 64, "unit": "µg/mL"}, {"measurement": "MICs (μg/ml) ± EPIs: MBX2319", "setting": "[7]", "result": 0.016, "unit": "µg/mL"}, {"measurement": "MIC (μg/ml) ± EPI: MBX2319", "setting": "[8]; + 25 μM MBX2319", "result": 0.013, "unit": "µg/mL"}, {"measurement": "MIC (μg/ml) ± EPI: PAβN", "setting": "[8]; + 25 μM PAβN", "result": 0.022, "unit": "µg/mL"}, {"measurement": "MIC (μg/ml) ± EPI: MBX2319", "setting": "[9]; + 25 μM MBX2319", "result": 0.149, "unit": "µg/mL"}, {"measurement": "MIC (μg/ml) ± EPI: PAβN", "setting": "[9]; + 25 μM PAβN", "result": 0.5, "unit": "µg/mL"}, {"measurement": "MIC", "setting": "[9]; ATCC700603, no EPI, read-out: MIC (μg/ml) ± EPI: None", "result": 0.71, "unit": "µg/mL"}, {"measurement": "MIC (μg/ml) ± EPI: MBX2319", "setting": "[10]; + 25 μM MBX2319", "result": 0.016, "unit": "µg/mL"}, {"measurement": "MIC (μg/ml) ± EPI: PAβN", "setting": "[10]; + 25 μM PAβN", "result": 0.044, "unit": "µg/mL"}, {"measurement": "MIC", "setting": "[10]; ATCC14028, no EPI, read-out: MIC (μg/ml) ± EPI: None", "result": 0.062, "unit": "µg/mL"}, {"measurement": "MIC (μg/ml) ± EPI: MBX2319", "setting": "[11]; Shigella flexneri ATCC 12022, + 25 μM MBX2319", "result": 0.016, "unit": "µg/mL"}, {"measurement": "MIC (μg/ml) ± EPI: PAβN", "setting": "[11]; Shigella flexneri ATCC 12022, + 25 μM PAβN", "result": 0.031, "unit": "µg/mL"}, {"measurement": "MIC", "setting": "[11]; Shigella flexneri, ATCC12022, read-out: MIC (μg/ml) ± EPI: None", "result": 0.063, "unit": "µg/mL"}, {"measurement": "MIC (μg/ml) ± EPI: MBX2319", "setting": "[12]; + 25 μM MBX2319", "result": 1, "unit": "µg/mL"}, {"measurement": "MIC (μg/ml) ± EPI: PAβN", "setting": "[12]; + 25 μM PAβN", "result": 0.5, "unit": "µg/mL"}, {"measurement": "MIC", "setting": "[12]; Pseudomonas aeruginosa, ATCC27853, no EPI, read-out: MIC (μg/ml) ± EPI: None", "result": 1, "unit": "µg/mL"}, {"measurement": "MIC", "setting": "[13]", "result": 0.06, "unit": "µg/mL"}]}]}
